Assay results from patent US10774074B2, “2-(1-heteroarylpiperazin-4-yl)methyl-1,4-benzodioxane derivatives as alpha2C antagonists” (ORION CORPORATION, priority 2015, dated 2020).
Counter-ions that a name gives are not always drawn.

How the values were obtained:
[1] = molecular target: T1, human alpha2A receptors (Homo sapiens, UniProt P08913); experiment: Determination of alpha2A antagonistic activity in vitro (FLIPR calcium assay, CHO cells); format: cell-based; settings: for Kb: Kb calculated with the Cheng-Prusoff equation from IC50, adrenaline as agonist, CHO cells, human alpha2A, read-out: Alpha 2A Adrenaline Kb; for IC50: antagonism of adrenaline stimulation, CHO cells stably transfected with human alpha2A receptor and Gα16, intracellular calcium (FLIPR), read-out: Alpha 2A Adrenaline IC50
T1 construct: host or cells: CHO cells, cotransfected with pCEP-Gα16
T1 sequence (P08913 1-465): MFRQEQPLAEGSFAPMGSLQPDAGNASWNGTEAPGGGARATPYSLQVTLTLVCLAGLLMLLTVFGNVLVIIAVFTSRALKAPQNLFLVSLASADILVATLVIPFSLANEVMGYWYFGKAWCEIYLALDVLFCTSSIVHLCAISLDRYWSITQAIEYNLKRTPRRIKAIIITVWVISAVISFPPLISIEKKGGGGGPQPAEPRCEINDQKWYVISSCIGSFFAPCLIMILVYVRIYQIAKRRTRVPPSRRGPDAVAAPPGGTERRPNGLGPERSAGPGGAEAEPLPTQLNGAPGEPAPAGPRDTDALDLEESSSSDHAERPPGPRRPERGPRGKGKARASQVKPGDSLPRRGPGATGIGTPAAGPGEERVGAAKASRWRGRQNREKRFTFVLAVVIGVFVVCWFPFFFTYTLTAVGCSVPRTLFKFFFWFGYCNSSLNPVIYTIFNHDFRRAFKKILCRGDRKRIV
Protocol: (§1) EXPERIMENT 1: Determination of alpha2A and alpha2C Antagonistic Activity In Vitro
(§2) Chinese hamster ovary (CHO) cells stably transfected with human alpha2A or alpha2C receptors (University of Turku, Finland) were cotransfected with the expression vector pCEP-Gα16 (Molecular Devices, CA, USA) were used in this experiment. The cells were maintained at 37° C. in a 5% CO2/95% air atmosphere. The cells were cultured in HAM F-12 medium supplemented with 10% FCS, 25 mM HEPES, 100 IU/ml penicillin, 100 µg/ml streptomycin, 500 μg/ml geneticin and 240 μg/ml hygromycin B. The cells were subcultured twice weekly with 0.25% trypsin and 1 mM EDTA. The subculture ratio was 1:5-1:20. The growth medium was changed every 2 or 3 days. All cell culture reagents were from Gibco. The day before the experiment the cells were plated into black-walled, clear bottom 384-well plates at a density of 10,000 cells/well.
(§3) The growth medium was removed and the cells were incubated with the test compounds and the FLIPR Calcium 6 Assay reagent (Molecular Devices, CA, USA) for 2 h at 37° C. in dark. The test compounds (concentrations in cells 100 pM-10 μM) were dissolved in Probenecid-Ringer consisting of 150 mM NaCl, 3 mM KCl, 1.2 mM MgCl2, 1 mM CaCl2, 5 mM glucose, 20 mM HEPES and 2.5 mM probenecid (pH 7.4 adjusted with 1.0 M NaOH). The osmolarity was adjusted to 322 milliosmoles with Osmostat® OM-6020 osmometer (DIC Kyoto Daiichi Kagagu Co. Ltd, Japan). […] All experiments were performed at 37° C. For agonism measurements the test compounds dissolved in Probenecid-Ringer were applied by FLIPR Tetra at 15 s time point. In order to determine antagonism, the cells were stimulated either with 100 nM adrenaline or noradrenaline and the test compounds were added to the cells 2 h before the experiment with the FLIPR Calcium 6 Assay reagent. […] Typically, there were four replicates at each concentration and six different dose levels. For example, if the number of plates from which results were obtained was three, 72 (4*6*3) wells were thus measured to construct dose-response relationship. The samples were excited at 485 nm and emission was detected at 525 nm with a 515 nm cut-off filter. The minimum fluorescence value subtracted from the maximum value for each well was used in the calculations. ScreenWorks version 4.0 software was used for analyzing the results. Fitting of the antagonist dose-response results was performed with the free Hill equation and the IC50 values were fitted with IDBS XE software using model 200: y=(A+(B/(1+((x/C)^D)))), where A is the curve maximum, B the curve minimum and C equals the EC50 value. D is slope factor (Hill). Kb was calculated with the Cheng-Prusoff equation Kb=A/((B/C)+1), where A is the IC50 of antagonist, B the concentration of agonist and C the EC50 of the agonist.

[2] = molecular target: T2, human alpha2C receptors (Homo sapiens, UniProt P18825); experiment: Determination of alpha2C antagonistic activity in vitro (FLIPR calcium assay, CHO cells); format: cell-based; settings: for Kb: Kb calculated with the Cheng-Prusoff equation from IC50, adrenaline as agonist, CHO cells, human alpha2C, read-out: Alpha 2C Adrenaline Kb; for IC50: antagonism of adrenaline stimulation, CHO cells stably transfected with human alpha2C receptor and Gα16, intracellular calcium (FLIPR), read-out: Alpha 2C Adrenaline IC50
T2 construct: host or cells: CHO cells, cotransfected with pCEP-Gα16
T2 sequence (P18825 1-462): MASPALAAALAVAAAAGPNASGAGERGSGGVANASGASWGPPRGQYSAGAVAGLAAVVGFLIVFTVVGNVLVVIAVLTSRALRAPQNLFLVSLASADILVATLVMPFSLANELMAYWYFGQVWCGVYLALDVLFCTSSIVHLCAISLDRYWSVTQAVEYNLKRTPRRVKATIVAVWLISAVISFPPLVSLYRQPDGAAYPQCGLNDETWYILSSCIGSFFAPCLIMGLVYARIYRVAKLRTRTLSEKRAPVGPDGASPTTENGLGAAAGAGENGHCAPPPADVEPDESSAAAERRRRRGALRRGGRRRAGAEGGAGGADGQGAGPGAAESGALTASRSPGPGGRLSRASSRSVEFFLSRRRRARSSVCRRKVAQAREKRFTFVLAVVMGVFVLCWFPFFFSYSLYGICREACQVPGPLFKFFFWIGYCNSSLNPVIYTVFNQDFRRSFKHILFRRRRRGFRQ
Protocol: as §1, §2, §3

Structure (SMILES)	Kb [1] [nM]	IC50 [1] [nM]	Kb [2] [nM]	IC50 [2] [nM]
Cc1c(C(C)(C)O)c(N2CCN(C[C@H]3COc4ccccc4O3)CC2)nn1C [Compound of example 13, (S)-2-(3-(4-((2,3-Dihydrobenzo[b][1,4]dioxin-2-yl)methyl)piperazin-1-yl)-1,5-dimethyl-1H-pyrazol-4-yl)propan-2-ol]	43	960	2.93	0.3
c1ccc(-n2nccc2N2CCN(C[C@H]3COc4ccccc4O3)CC2)nc1 [Compound of example 10, (S)-1-((2,3-Dihydrobenzo[b][1,4]dioxin-2-yl)methyl)-4-(1-(pyridin-2-yl)-1H-pyrazol-5-yl)piperazine]	350	7810	1.14	0.113
Cc1c(N2CCC2=O)c(N2CCN(C[C@H]3COc4ccccc4O3)CC2)nn1C [Compound of example 4, (S)-1-(3-(4-((2,3-Dihydrobenzo[b][1,4]dioxin-2-yl)methyl)piperazin-1-yl)-1,5-dimethyl-1H-pyrazol-4-yl)azetidin-2-one]	217		0.13	0.01
O=C1CCCN1c1ncsc1N1CCN(C[C@H]2COc3ccccc3O2)CC1 [Compound of example 20, (S)-1-(5-(4-((2,3-Dihydrobenzo[b][1,4]dioxin-2-yl)methyl)piperazin-1-yl)thiazol-4-yl)pyrrolidin-2-one]	405	9020	0.394	0.04
NC(=O)c1nsnc1N1CCN(C[C@H]2COc3ccccc3O2)CC1 [Compound of example 27, (S)-4-(4-((2,3-Dihydrobenzo[b][1,4]dioxin-2-yl)methyl)piperazin-1-yl)-1,2,5-thiadiazole-3-carboxamide]	> 449	> 10000	1650	166
c1ccc(COc2ncccc2Nc2nsnc2N2CCN(C[C@H]3COc4ccccc4O3)CC2)cc1 [Compound of example 37, (S)—N-(2-(Benzyloxy)pyridin-3-yl)-4-(4-((2,3-dihydrobenzo[b][1,4]-dioxin-2-yl)methyl)piperazin-1-yl)-1,2,5-thiadiazol-3-amine hydrochloride]	> 449	> 10000	73.1	7.36
COc1cccc(-n2nc(C)cc2N2CCN(C[C@H]3COc4ccccc4O3)CC2)n1 [Compound of example 39, (S)-1-((2,3-Dihydrobenzo[b][1,4]dioxin-2-yl)methyl)-4-(1-(6-methoxypyridin-2-yl)-3-methyl-1H-pyrazol-5-yl)piperazine]	82	1830	0.29	0.03
Cc1c(N2CCN(C)C2=O)c(N2CCN(C[C@H]3COc4ccccc4O3)CC2)nn1C [Compound of example 15, (S)-1-(3-(4-((2,3-Dihydrobenzo[b][1,4]dioxin-2-yl)methyl)piperazin-1-yl)-1,5-dimethyl-1H-pyrazol-4-yl)-3-methylimidazolidin-2-one]	> 449	> 10000	1.64	0.17
Cc1nsc(N2CCN(C[C@H]3COc4ccccc4O3)CC2)c1N1CCCC1=O [Compound of example 31, (S)-1-(5-(4-((2,3-Dihydrobenzo[b][1,4]dioxin-2-yl)methyl)piperazin-1-yl)-3-methylisothiazol-4-yl)pyrrolidin-2-one]	> 449	> 10000	1.66	0.17
CNC(=O)c1nsnc1N1CCN(C[C@H]2COc3ccccc3O2)CC1 [Compound of example 29, (S)-4-(4-((2,3-Dihydrobenzo[b][1,4]dioxin-2-yl)methyl)piperazin-1-yl)-N-methyl-1,2,5-thiadiazole-3-carboxamide hydrochloride]	> 449	> 10000	4210	424
c1cnc(Nc2nsnc2N2CCN(C[C@H]3COc4ccccc4O3)CC2)nc1 [Compound of example 18, (S)-4-(4-((2,3-Dihydrobenzo[b][1,4]dioxin-2-yl)methyl)piperazin-1-yl)-N-(pyrimidin-2-yl)-1,2,5-thiadiazol-3-amine]	233	5190	30.1	3.03
CC(=O)Nc1nsnc1N1CCN(C[C@H]2COc3ccccc3O2)CC1 [Compound of example 16, (S)—N-(4-(4-((2,3-Dihydrobenzo[b][1,4]dioxin-2-yl)methyl)piperazin-1-yl)-1,2,5-thiadiazol-3-yl)acetamide]	> 449	> 10000	4210	424

The next lines start with the values.

Kb [1] [nM]	IC50 [1] [nM]	Kb [2] [nM]	IC50 [2] [nM]	Structure (SMILES)
> 449	> 10000	1070	108	CN1CCN(c2nsnc2N2CCN(C[C@H]3COc4ccccc4O3)CC2)C1=O [Compound of example 28, (S)-1-(4-(4-((2,3-Dihydrobenzo[b][1,4]dioxin-2-yl)methyl)piperazin-1-yl)-1,2,5-thiadiazol-3-yl)-3-methylimidazolidin-2-one]
> 449	> 10000	0.527	0.054	O=C1NCCN1c1nsnc1N1CCN(C[C@H]2COc3ccccc3O2)CC1 [Compound of example 30, (S)-1-(4-(4-((2,3-Dihydrobenzo[b][1,4]dioxin-2-yl)methyl)piperazin-1-yl)-1,2,5-thiadiazol-3-yl)imidazolidin-2-one]
> 449	> 10000	0.92	0.09	CN(C)C(=O)c1nsnc1N1CCN(C[C@H]2COc3ccccc3O2)CC1 [Compound of example 34, (S)-4-(4-((2,3-Dihydrobenzo[b][1,4]dioxin-2-yl)methyl)piperazin-1-yl)-N,N-dimethyl-1,2,5-thiadiazole-3-carboxamide]
> 449	> 10000	401	40.4	CC(=O)c1nsnc1N1CCN(C[C@H]2COc3ccccc3O2)CC1 [Compound of example 33, (S)-1-(4-(4-((2,3-Dihydrobenzo[b][1,4]dioxin-2-yl)methyl)piperazin-1-yl)-1,2,5-thiadiazol-3-yl)ethanone]
> 449	> 10000	< 0.1	< 0.01	CC1(C)CCN(c2nsnc2N2CCN(C[C@H]3COc4ccccc4O3)CC2)C1=O [Compound of example 17, (S)-1-(4-(4-((2,3-Dihydrobenzo[b][1,4]dioxin-2-yl)methyl)piperazin-1-yl)-1,2,5-thiadiazol-3-yl)-3,3-dimethylpyrrolidin-2-one]
